Experimental data taken from patent publication US10251892B2, “Bicyclic heterocycles as FGFR4 inhibitors” (Incyte Corporation, priority 2015, dated 2019).

Experiments:
[1] = target: FGFR3 enzyme (Homo sapiens (Human), UniProt P22607); experiment: FGFR Enzymatic Assay (peptide phosphorylation, FRET), FGFR3; type: biochemical; settings: IC50 ratio showing FGFR3 selectivity; pre-incubated for 4 hours
Method: (§1) The inhibitor potency of the exemplified compounds was measured in an enzyme assay that measures peptide phosphorylation using FRET measurements to detect product formation. Inhibitors were serially diluted in DMSO and a volume of 0.5 μL was transferred to the wells of a 384-well plate.
(§2) GraphPad prism3 was used to analyze the data.

[2] = target: FGFR4 (Homo sapiens (Human), UniProt P22455); experiment: FGFR Enzymatic Assay (peptide phosphorylation, FRET), FGFR4; type: biochemical
Method: as §1
The enzymes were purchased from Millipore or Invitrogen.
as §2

[3] = IC50 ratio showing FGFR4 selectivity, pre-incubated for 4 hours
[4] = ratio of IC50 data showing FGFR4 selectivity, pre-incubated for 5 to 10 minutes

Sequence of FGFR4 (P22455 22-802): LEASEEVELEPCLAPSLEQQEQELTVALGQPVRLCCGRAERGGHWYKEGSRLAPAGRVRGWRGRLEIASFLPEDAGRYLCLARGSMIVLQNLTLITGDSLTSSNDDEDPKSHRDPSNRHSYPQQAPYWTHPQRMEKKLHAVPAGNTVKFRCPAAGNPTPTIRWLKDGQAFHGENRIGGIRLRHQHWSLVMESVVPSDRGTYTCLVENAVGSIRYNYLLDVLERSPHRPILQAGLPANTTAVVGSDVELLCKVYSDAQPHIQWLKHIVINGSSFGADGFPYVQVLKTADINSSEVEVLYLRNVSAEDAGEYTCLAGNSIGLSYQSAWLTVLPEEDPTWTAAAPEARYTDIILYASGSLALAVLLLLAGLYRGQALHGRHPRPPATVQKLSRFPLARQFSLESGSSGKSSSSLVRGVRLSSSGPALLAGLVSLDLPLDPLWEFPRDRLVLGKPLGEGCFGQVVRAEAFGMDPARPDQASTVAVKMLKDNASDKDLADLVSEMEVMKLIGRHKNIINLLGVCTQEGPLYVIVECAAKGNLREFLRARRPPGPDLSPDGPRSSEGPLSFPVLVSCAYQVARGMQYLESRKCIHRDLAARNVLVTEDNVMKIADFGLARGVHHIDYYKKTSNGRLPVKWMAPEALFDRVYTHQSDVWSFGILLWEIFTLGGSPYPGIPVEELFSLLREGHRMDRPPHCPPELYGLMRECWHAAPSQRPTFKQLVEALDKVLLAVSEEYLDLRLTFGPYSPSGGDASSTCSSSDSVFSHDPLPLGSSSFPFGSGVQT
Sequence of FGFR3 enzyme (P22607 23-806): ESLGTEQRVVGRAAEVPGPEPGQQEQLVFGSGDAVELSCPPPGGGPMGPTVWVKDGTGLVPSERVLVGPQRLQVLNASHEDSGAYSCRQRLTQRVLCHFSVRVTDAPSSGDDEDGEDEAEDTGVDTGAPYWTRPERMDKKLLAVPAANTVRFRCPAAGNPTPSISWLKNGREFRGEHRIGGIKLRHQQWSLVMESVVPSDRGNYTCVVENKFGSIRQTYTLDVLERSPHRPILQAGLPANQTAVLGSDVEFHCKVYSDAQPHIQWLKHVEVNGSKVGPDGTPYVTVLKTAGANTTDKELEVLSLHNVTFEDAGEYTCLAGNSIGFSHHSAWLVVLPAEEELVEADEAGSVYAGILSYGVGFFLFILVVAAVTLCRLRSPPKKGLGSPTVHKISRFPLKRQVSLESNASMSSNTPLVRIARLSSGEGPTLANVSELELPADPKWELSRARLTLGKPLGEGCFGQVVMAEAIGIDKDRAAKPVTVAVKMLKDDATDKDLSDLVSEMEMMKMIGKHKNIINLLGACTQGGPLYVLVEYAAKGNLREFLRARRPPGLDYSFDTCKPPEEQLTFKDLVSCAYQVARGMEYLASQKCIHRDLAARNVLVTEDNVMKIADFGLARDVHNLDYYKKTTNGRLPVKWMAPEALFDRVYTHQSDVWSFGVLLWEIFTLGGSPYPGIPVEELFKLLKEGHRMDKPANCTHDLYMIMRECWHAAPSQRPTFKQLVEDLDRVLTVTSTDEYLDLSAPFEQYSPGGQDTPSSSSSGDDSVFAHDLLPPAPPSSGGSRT

Row | Structure (SMILES) | FGFR1/FGFR3 [1] | FGFR1/FGFR4 [2, 3] | FGFR2/FGFR4 [2, 3] | FGFR3/FGFR4 [2, 3] | FGFR1/FGFR4 [2, 4] | FGFR2/FGFR4 [2, 4] | FGFR3/FGFR4 [2, 4]
1 | COc1cc(OC)c(F)c(N2Cc3cnc(-c4cncc(C(=O)N5CCOCC5)c4)cc3C3(CC3)C2=O)c1F [Example 13, 2′-(2,6-difluoro-3,5-dimethoxyphenyl)-6′-(5-(morpholine-4-carbonyl)pyridin-3-yl)-1′H-spiro[cyclopropane-1,4′-[2,7]naphthyridin]-3′(2′H)-one] | >3 | >50 | >25 | >10 | >50 | >20 | >10
2 | COc1cc(OC)c(F)c(N2Cc3cnc(-c4cccnc4)cc3C3(CC3)C2=O)c1F [Example 9, 2′-(2,6-difluoro-3,5-dimethoxyphenyl)-6′-(pyridin-3-yl)-1′H-spiro[cyclopropane-1,4′-[2,7]naphthyridin]-3′(2′H)-one] | >3 | >10 | >1 | >1 | >5 | >1 | >1
